{"source": "patent US12329801B2", "about": "“Regenerative polypeptides and uses thereof” (JUVENA THERAPEUTICS, INC., priority 2021, dated 2025)", "key": {"[1]": {"test_system": "Aged human myoblasts", "experiment": "Myogenic transcription factor expression in aged human myoblasts (qPCR)", "type": "cell-based", "method": "RNA was isolated from each well (RNeasy Mini Kit, Qiagen) and cDNA was obtained by reverse-transcription (High Capacity Reverse Transcription Kit, Thermo Fisher Scientific). Real-time quantitative PCR was performed using QuantStudio3 (Thermo Fisher).\nAged human myoblasts were cultured in well plates. […] Cells that had been cultured with IGF2 had increases in levels of MYOG at 48 hours and levels of MYOD at 72 hours."}, "[2]": {"experiment": "Backbone cleavage on expression from CHO cells (reducing SDS-PAGE, Western blot)", "design": "species or system Chinese Hamster", "conditions": "expressed from CHO cells", "method": "The amino acid backbone of IGF2 is cleaved when expressed from Chinese Hamster Ovary (CHO) cells (FIG. 13A) as visualized on a reducing SDS-PAGE and Western blot (FIG. 13B). The CHO cells were grown in a 37° C. incubator with a humidified atmosphere of 8% CO2 on an orbital shaker platform with a shaking speed 125 rpm to reach 4E6 cells/mL, followed by transferring the calculated volume of cells to fresh, pre-warmed ExpiCHO™ Expression Medium in a shake flask. Incubated flasks in a 37° C. incubator with a humidified atmosphere of 8% CO2 shook on an orbital shaker platform until cultures reached a density of 4×106−6×10^6 viable cells/mL.\nAfter mixing each plasmid with 100 ul SFM in a microtube; ExpiFectamine (8 ul ×10.5=84 ul) with OptiPro medium (92 ul×10.5=966 ul) in a microtube; adding 100 ul into the plasmid tube and mix by pipetting; After 5 min, add 200 ul into each well and swirl to mix. mix enhancer (15×10.2=153 ul) with feed ([…]), add 615 ul into each well. Culture supernatant collected at intervals was spun down at low speed and high speed, then frozen at −80 deg. Aliquots were analyzed for protein concentration by nanodrop, and then an equivalent amount loaded onto 4-12% SDS-PAGE gels for molecular weight distribution analysis. […]"}, "[3]": {"test_system": "human myoblast cells", "experiment": "Human myoblast differentiation (% area eMyHC) with IGF2 and/or sodium butyrate", "type": "cell-based", "method": "Fresh media was added every 24 hours. […], cells were pulsed for 2-5 hours with EdU (30 uM), ethanol fixed, stained with Hoescht 3342, immunostained for proliferation—as measured by the percent of cells staining positive for EdU (% EdU)-, and immunostained for differentiation—as measured by the increase in cellular area staining positive for embryonic myosin heavy chain (% eMyHC) relative to the negative controls, which received media and vehicle only. The total area of eMyHc positive cells was analyzed, and treated cells were compared to cells treated with the vehicle alone. […] Significance was determined by a p-value less than 0.05 by the one-way ANOVA Tukey Honest Significant Difference test.\nMyoblast were cultured 96 h in the presence of IGF2 at indicated dose. Fresh media and IGF2 was added every 24 h.\nFresh media was added every 24 hours.\nSignificance was determined by a p-value less than 0.05 by the one-way ANOVA Tukey Honest Significant Difference test."}, "[4]": {"test_system": "DM1 human myoblast cells", "experiment": "Proliferation (EdU) and fusion (% eMyHC area) in DM1 human myoblast", "type": "cell-based", "conditions": "72 h for proliferation, fold change vs vehicle", "method": "FIG. 7A Bar graph of % EdU+ human myoblast (person) and FIG. 7B % area MyHC in response to IGF2. Myoblast were cultured 72 h for proliferation and 96 h for fusion in the presence of indicated factor. Mean∓S.D. Mean∓SD. Significant p-values (EdU: Vehicle˜IGF2: 6.8E-3, % eMyHC Area: Vehicle˜IGF2: 1.9E-4) (*p<0.05 by Students Two-Tailed T-test, n=3-6).\nIGF2 was tested individually for its ability to promote proliferation and/or fusion of human muscle progenitor cells from an individual with myotonic dystrophy type 1 (hMD)—a muscular dystrophy caused by mutations in the DMPK1 gene. […] After 72 or 96 hours, cells were pulsed for 2-5 hours with EdU (30 uM), ethanol fixed, stained with Hoescht 3342, immunostained for proliferation—as measured by the percent of cells staining positive for EdU (% EdU)-, and immunostained for differentiation—as measured by the increase in cellular area staining positive for embryonic myosin heavy chain (% eMyHC) relative to the negative controls, which received media and vehicle only. Wells were imaged on a Keyence BZ-100 at 4×, the images quantified in Cell Profiler, and the statistics were computed in R. Additionally, RNA was extracted from myoblast and select transcript abundances quantified by qPCR. […]"}, "[5]": {"test_system": "DM1 human myoblast", "experiment": "Myogenic gene expression fold change in DM1 human myoblast", "type": "cell-based", "conditions": "48 h; BMP7 50 ng/mL, Butyrate 100 nM, IGF2 200 ng/mL", "method": "Myoblasts were cultured 48 h in the presence of factors (BMP7 50 ng/mL, Butyrate 100 nM, IGF2 200 ng/mL).\nMyoblasts were cultured 96 h in the presence of factors (IGF2 200 ng/ml). […] Myoblasts were cultured 48 h in the presence of factors (IGF2 200 ng/mL).\nIGF2 was tested individually for its ability to promote proliferation and/or fusion of human muscle progenitor cells from an individual with myotonic dystrophy type 1 (hMD)—a muscular dystrophy caused by mutations in the DMPK1 gene. The effect of IGF2 on myogenic activity was assayed in biological triplicate across a range of concentrations centered around expected physiological levels by adding each factor to hMD myoblasts for 72 hours with daily media changes (DMEM +2% horse serum) and a second pulse of factors at the first media change. After 72 or 96 hours, cells were pulsed for 2-5 hours with EdU (30 uM), ethanol fixed, stained with Hoescht 3342, immunostained for proliferation—as measured by the percent of cells staining positive for EdU (% EdU)-, and immunostained for differentiation—as measured by the increase in cellular area staining positive for embryonic myosin heavy chain (% eMyHC) relative to the negative controls, which received media and vehicle only. Wells were imaged on a Keyence BZ-100 at 4×, the images quantified in Cell Profiler, and the statistics were computed in R. Additionally, RNA was extracted from myoblast and select transcript abundances quantified by qPCR."}}, "data": [{"substance": "IGF2: Human IGF2 amino acid sequence, SEQ ID NO: 29", "values": [{"measurement": "MYF5 fold change", "setting": "[1]; 48 h", "value": 0.409}, {"measurement": "MYOD1 fold change", "setting": "[1]; 48 h", "value": 0.519}, {"measurement": "MYOG fold change", "setting": "[1]; 48 h", "value": 5.756}, {"measurement": "MYF5 fold change", "setting": "[1]; 72 h", "value": 0.708}, {"measurement": "MYOD1 fold change", "setting": "[1]; 72 h", "value": 5.723}, {"measurement": "MYOG fold change", "setting": "[1]; 72 h", "value": 0.018}, {"measurement": "cleavage of the IGF2 amino acid backbone", "setting": "[2]", "value": "is cleaved"}, {"measurement": "% eMyHC", "setting": "[3]; IGF2 0.015 ug/mL alone, 96 h (FIG. 3B/3C)", "value": 10.843, "unit": "%"}, {"measurement": "% eMyHC", "setting": "[3]; IGF2 0.03 ug/mL alone, 48 hours (FIG. 4A/4B)", "value": 16.620, "unit": "%"}, {"measurement": "EdU FC", "setting": "[4]", "value": 2.18}, {"measurement": "MYF5 expression fold change compared to FM (vehicle)", "setting": "[5]", "value": 0.730}, {"measurement": "MYOD1 expression fold change compared to FM (vehicle)", "setting": "[5]", "value": 1.252}, {"measurement": "MYOG expression fold change compared to FM (vehicle)", "setting": "[5]", "value": 2.972}]}]}
